Entries after “also recorded” stand apart in the source; their conditions may differ.
Columns and labels:
[1] = DCIP redox potential vs CA concentration, semi-light beer; assay type: physicochemical; conditions: 4 hr, 2-4° C.
Method: The light beer was purchased at a local market and was 2 months old at time of use. Carnosic acid was added via a 1% ethanol solution made with pure CA. The levels of addition were 0, 5, 10, 15 and 20 ppm. The beers were opened, additions made and the beers were fobbed and crowned as described in Example 4. All analyses were done in triplicate using the DCIP method as described in Example 4. The samples were refrigerated for approx. 4 hr before being degassed and analyzed.
The same experiment was carried out with a semi-light beer with a production code indicating it was 5 months old.

[2] = HPLC cis/trans ratio of isohumulone in beer stored at 40° C.; assay type: physicochemical; conditions: for Cis/Trans Ratio of Isohumulone: 20 ppm of each constituent
Method: One case of bottles was opened, 20 ppm carnosic acid and 20 ppm rosmarinic acid in the form of a propylene glycol solution was added and the bottles fobbed and crowned according to the procedure detailed in Example 1. An additional case was opened, fobbed and crowned in the same manner, and designated “Control”. All bottles were put in a 40° C. temperature controlled hot room. Samples of the above beer were taken at 0 time, 7, 21, 35, 44 and 58 days for HPLC hop acid analysis by a modification of the method of Burroughs and Williams [1999]. Beer samples (100 mL) were gently poured into tall-form beakers to avoid excessive foaming. Octanol (1-2 drops) was added to minimize foam, and the beer was sparged with helium for 10-15 minutes to degas them. The degased beer was transferred to a 2 mL autosampler vial and assayed according to the method in the reference.
The level of trans declines faster than the level of cis isomers. The trans isomers in this example are 28% of the total hop acids.

[3] = Stability of RA in 9.5% tetrahydroisohumulone solution at pH 8; assay type: physicochemical; conditions: pH 8, room temperature
Method: A solution of rosmarinic acid in 9.5% tetrahydroisohumulone at pH 8 was prepared and allowed to stand at room temperature for an extended period of time to determine stability.

[4] = Scaling sensory panel for staling, model citrus beverage; conditions: for Panelist staling Average (0 fresh, 10 most stale): 50 ppm (RA/CA: 50 ppm each)
Method: Carbon filtered water was carbonated to 3.5 to 4 times the volume of beer. 59.2 ml of syrup was added to each 355 ml bottle. Each bottle was individually dosed with the treatments listed in Table 22 by adding 1.775 mL of a 1% (weight/volume) solution of carnosol or rosmarinic acid in ethanol to give 50 ppm of each. The bottle was filled to approximately 355 ml with carbonated water before it was capped and inverted. Fresh samples were stored in the refrigerator (0° C.). Heat exposed samples were aged in the oven (32° C.) for seven days. The sensory data were taken in the following manner. Each sample (controls and treatments) was presented to the panelists one time. Panelists rated the beers on a scale of 0-10, with 0 being fresh and 10 being most stale. Panelists were given examples of a fresh and stale material prior to the panel for training on these characteristics. Since the output of the panel as a whole was desired, and not any one individual panelist, the means of each treatment sample in each replicate groups were calculated and tabulated as in Table 24. […] These diluted samples best represent the loss in flavor that occurs when the sample is thermally aged. […] Statistical analysis consisted of doing paired t-Tests on the treatment sample vs. the aged control sample (Table 25). One-tailed tests were used that probed the question whether the […] values of one treatment were lower than that of the other (e.g treatment vs. control). Confidence levels were reported along with p values.

[5] = Flavor stability of flavored malt beverage; conditions: 10 ppm CA and 5 ppm CN; 10 ppm RA
Method: To a flavored malt beverage 10 ppm CA and 5 ppm CN, is added, and the beverage aged. To the same beverage, 10 ppm RA is added. […] When RA is added to the CA and or CN, an improvement is observed.

With `CC(C)c1cc2c(c(O)c1O)[C@@]1(C(=O)O)CCCC(C)(C)[C@@H]1CC2` [CA, carnosic acid] the “Redox Potential” value ([1]; 5 ppm CA) was 47.4, the “Redox Potential” value ([1]; 10 ppm CA) was 56.6 and the “Redox Potential” value ([1]; 15 ppm CA) was 64.8. For the same molecule, the “Redox Potential” value ([1]; 20 ppm CA) was 73.9, the “time up to which the cis/trans level was helped to be maintained” value ([2]; 20 ppm CA, 40° C.) was “about 35 days” and the “Cis/Trans Ratio of Isohumulone” value ([2]; Day 0, 40° C.) was 2.699. The “Cis/Trans Ratio of Isohumulone” value ([2]; Day 7, 40° C.) was 2.850, the “Cis/Trans Ratio of Isohumulone” value ([2]; Day 21, 40° C.) was 3.947 and the “Cis/Trans Ratio of Isohumulone” value ([2]; Day 35, 40° C.) was 5.450. The “Cis/Trans Ratio of Isohumulone” value ([2]; Day 44, 40° C.) was 7.974 and the “Cis/Trans Ratio of Isohumulone” value ([2]; Day 58, 40° C.) was 9.863.
With `O=C(/C=C/c1ccc(O)c(O)c1)O[C@H](Cc1ccc(O)c(O)c1)C(=O)O` [RA, rosmarinic acid] the “% Rosmarinic Acid in Solution” value ([3]; 0 days) was 12.07%, the “% Rosmarinic Acid in Solution” value ([3]; 3 days) was 12.45% and the “% Rosmarinic Acid in Solution” value ([3]; 5 days) was 12.40%. The “% Rosmarinic Acid in Solution” value ([3]; 15 days) was 12.12%, the “% Rosmarinic Acid in Solution” value ([3]; 38 days) was 11.36% and the “% Rosmarinic Acid in Solution” value ([3]; 54 days) was 11.74%. The “% Rosmarinic Acid in Solution” value ([3]; 86 days) was 10.88%, the “stability in hop acid solution” value [3] was “stable in this formulation for at least three months; also recorded: very stable in the hop acid solution” and the “Panelist staling Average (0 fresh, 10 most stale)” value ([4]; Aged (32° C., seven days)) was 6.17. The “Panelist staling Average (0 fresh, 10 most stale)” value ([4]; Fresh) was 0.67, the “flavor stabilization in model citrus beverage” value ([4]; scaling study of staling) was “not an effect flavor stabilizer” and the “flavor stability of aged flavored malt beverage” value [5] was “only slightly better than the control”.
